From ChEMBL document CHEMBL6182930, “Discovery of TBK1Molecular Glue Degraders as a Potential Strategy for the Treatment of Autosomal Dominant Polycystic Kidney Disease (ADPKD)” (J Med Chem, 2025)
Calls of active or inactive are those of the source. The calls are words filed in the database; no cut-off is given here.

What was measured:
[1] = target: T1, E3 ubiquitin-protein ligase RNF126/Serine/threonine-protein kinase TBK1 (Homo sapiens, UniProt Q9UHD2+Q9BV68); assay: Molecular glue activity at RNF126/TBK1 in HEK293T cells assessed as induction of TBK1 degradation at 1 uM pretreated with MG132 for 2 hrs followed by compound addition and measured after 16 hrs by Western blot analysis; assay type: cell-based
Target sequence in this assay (Q9BV68 2-311 partner limits assumed): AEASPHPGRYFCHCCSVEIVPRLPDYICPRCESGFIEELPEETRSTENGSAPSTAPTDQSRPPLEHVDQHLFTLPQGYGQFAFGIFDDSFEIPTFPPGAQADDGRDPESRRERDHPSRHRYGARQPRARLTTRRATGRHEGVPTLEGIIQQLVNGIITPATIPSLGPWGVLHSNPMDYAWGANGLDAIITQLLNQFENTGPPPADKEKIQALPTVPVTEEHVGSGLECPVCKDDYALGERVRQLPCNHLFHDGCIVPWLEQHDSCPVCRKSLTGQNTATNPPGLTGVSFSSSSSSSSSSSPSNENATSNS
Target sequence in this assay (Q9UHD2 whole entry): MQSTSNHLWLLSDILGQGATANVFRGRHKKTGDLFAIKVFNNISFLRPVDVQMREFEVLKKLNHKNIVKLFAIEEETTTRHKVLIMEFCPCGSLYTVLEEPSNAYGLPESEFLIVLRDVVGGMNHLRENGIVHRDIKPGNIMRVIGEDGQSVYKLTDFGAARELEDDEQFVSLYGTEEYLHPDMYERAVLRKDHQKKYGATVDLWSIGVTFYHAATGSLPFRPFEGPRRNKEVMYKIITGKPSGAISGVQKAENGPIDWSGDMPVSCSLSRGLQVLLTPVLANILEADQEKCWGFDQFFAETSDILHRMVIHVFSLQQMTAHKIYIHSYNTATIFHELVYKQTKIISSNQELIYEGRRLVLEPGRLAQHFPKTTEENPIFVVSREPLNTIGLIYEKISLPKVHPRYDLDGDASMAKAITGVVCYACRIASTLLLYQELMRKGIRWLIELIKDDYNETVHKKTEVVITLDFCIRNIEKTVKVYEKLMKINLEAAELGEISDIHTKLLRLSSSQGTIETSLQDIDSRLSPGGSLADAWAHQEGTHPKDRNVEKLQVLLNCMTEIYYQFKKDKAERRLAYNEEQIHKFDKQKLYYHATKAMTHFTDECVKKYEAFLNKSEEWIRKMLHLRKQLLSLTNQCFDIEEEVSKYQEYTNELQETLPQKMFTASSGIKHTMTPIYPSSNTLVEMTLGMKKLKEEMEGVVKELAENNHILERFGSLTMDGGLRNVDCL

Mus musculus [2] = assay: Anti-inflammatory activity in PKD1 knockout ADPKD (Pkd1 flox/flox; Ksp-Cre) C57BL/6 mouse model assessed as decrease in IL-1beta level in kidney at 5 mg/kg, SC administered from postnatal day 6 and measured on postnatal day 12 by RT-qPCR analysis; assay type: functional, organism-based; conditions: time 7.0 day
MDCK = assay: Inhibition of cystogenesis in forskolin-stimulated MDCK cells assessed as reduction in cyst growth at 100 nM by imaging analysis; assay type: functional, cell-based; conditions: Canis lupus familiaris, time 8.0 day
[3] = Cmax in rat at 2 mg/kg, iv measured after 24 hrs by LC-MS/MS analysis; assay type: ADME, organism-based; conditions: in vivo
[4] = target: T1, E3 ubiquitin-protein ligase RNF126/Serine/threonine-protein kinase TBK1; assay: Molecular glue activity at RNF126/TBK1 in HEK293T cells assessed as induction of TBK1 degradation at 1 uM pretreated with MLN4924 for 2 hrs followed by compound addition and measured after 16 hrs by Western blot analysis; assay type: cell-based
Target sequence in this assay (Q9BV68 2-311 partner limits assumed): as the sequence (Q9BV68 2-311 partner limits assumed) above
Target sequence in this assay (Q9UHD2 whole entry): as the sequence (Q9UHD2 whole entry) above

[5] = Cmax in rat at 10 mg/kg, po measured after 24 hrs by LC-MS/MS analysis; assay type: ADME, organism-based; conditions: in vivo
Mus musculus [6] = assay: Anti-inflammatory activity in PKD1 knockout ADPKD (Pkd1 flox/flox; Ksp-Cre) C57BL/6 mouse model assessed as decrease in IL-6 level in kidney at 5 mg/kg, SC administered from postnatal day 6 and measured on postnatal day 12 by RT-qPCR analysis; assay type: functional, organism-based; conditions: time 7.0 day
[7] = Tmax in rat at 10 mg/kg, po measured after 24 hrs by LC-MS/MS analysis; assay type: ADME, organism-based; conditions: in vivo
[8] = Tmax in rat at 2 mg/kg, iv measured after 24 hrs by LC-MS/MS analysis; assay type: ADME, organism-based; conditions: in vivo
[9] = target: T1, E3 ubiquitin-protein ligase RNF126/Serine/threonine-protein kinase TBK1; assay: Molecular glue activity at RNF126/TBK1 in human A549 cells assessed as induction of TBK1 degradation at 1 uM measured after 6 hrs by Western blot analysis; assay type: cell-based
Target sequence in this assay (Q9BV68 2-311 partner limits assumed): as the sequence (Q9BV68 2-311 partner limits assumed) above
Target sequence in this assay (Q9UHD2 whole entry): as the sequence (Q9UHD2 whole entry) above

[10] = target: T1, E3 ubiquitin-protein ligase RNF126/Serine/threonine-protein kinase TBK1; assay: Molecular glue activity at RNF126/TBK1 in HEK293T cells assessed as induction of TBK1 degradation at 1 uM incubated for 16 hrs by Western blot analysis; assay type: cell-based
Target sequence in this assay (Q9BV68 2-311 partner limits assumed): as the sequence (Q9BV68 2-311 partner limits assumed) above
Target sequence in this assay (Q9UHD2 whole entry): as the sequence (Q9UHD2 whole entry) above

[11] = target: T1, E3 ubiquitin-protein ligase RNF126/Serine/threonine-protein kinase TBK1; assay: Molecular glue activity at RNF126/TBK1 in human A549 cells assessed as induction of TBK1 degradation at 1 uM by Western blot analysis; assay type: cell-based; conditions: time 2-24 hrs
Target sequence in this assay (Q9BV68 2-311 partner limits assumed): as the sequence (Q9BV68 2-311 partner limits assumed) above
Target sequence in this assay (Q9UHD2 whole entry): as the sequence (Q9UHD2 whole entry) above

Mus musculus [12] = assay: Inhibition of renal cystogenesis in PKD1 knockout ADPKD (Pkd1 flox/flox; Ksp-Cre) C57BL/6 mouse model assessed as reduction in relative kidney size at 5 mg/kg, SC administered from postnatal day 6 and measured on postnatal day 12; assay type: functional, organism-based; conditions: time 7.0 day
Mus musculus [13] = assay: In vivo inhibition of TBK1-mediated activation of inflammatory pathway in PKD1 knockout ADPKD (Pkd1 flox/flox; Ksp-Cre) C57BL/6 mouse model assessed as decrease in phosphorylated IRF3 level in kidney at 5 mg/kg, SC administered from postnatal day 6 and measured on postnatal day 12 by Western blot analysis; assay type: functional, organism-based; conditions: time 7.0 day
[14] = target: T1, E3 ubiquitin-protein ligase RNF126/Serine/threonine-protein kinase TBK1; assay: Molecular glue activity at RNF126/TBK1 in HEK293T cells assessed as induction of TBK1 degradation by measuring maximal efficacy at 10 to 1000 nM incubated for 16 hrs by Western blot analysis relative to control; assay type: cell-based; conditions: dose 10-1000 nM
Target sequence in this assay (Q9BV68 2-311 partner limits assumed): as the sequence (Q9BV68 2-311 partner limits assumed) above
Target sequence in this assay (Q9UHD2 whole entry): as the sequence (Q9UHD2 whole entry) above

[15] = AUC (0 to infinity) in rat at 10 mg/kg, po measured after 24 hrs by LC-MS/MS analysis; assay type: ADME, organism-based; conditions: in vivo
Mus musculus [16] = assay: In vivo molecular glue activity at RNF126/TBK1 in PKD1 knockout ADPKD (Pkd1 flox/flox; Ksp-Cre) C57BL/6 mouse model assessed as decrease in TBK1 level in kidney at 5 mg/kg, SC administered from postnatal day 6 and measured on postnatal day 12 by Western blot analysis; assay type: functional, organism-based; conditions: time 7.0 day
[17] = target: T1, E3 ubiquitin-protein ligase RNF126/Serine/threonine-protein kinase TBK1; assay: Molecular glue activity at RNF126/TBK1 in human A549 cells assessed as induction of TBK1 degradation at 1 uM pretreated with MLN4924 for 2 hrs followed by compound addition and measured after 16 hrs by Western blot analysis; assay type: cell-based
[18] = AUC (0 to infinity) in rat at 2 mg/kg, iv measured after 24 hrs by LC-MS/MS analysis; assay type: ADME, organism-based; conditions: in vivo
[19] = target: T1, E3 ubiquitin-protein ligase RNF126/Serine/threonine-protein kinase TBK1; assay: Molecular glue activity at RNF126/TBK1 in human A549 cells assessed as induction of TBK1 degradation at 1 uM incubated for 16 hrs by Western blot analysis; assay type: cell-based
[20] = target: T1, E3 ubiquitin-protein ligase RNF126/Serine/threonine-protein kinase TBK1; assay: Molecular glue activity at RNF126/TBK1 in human A549 cells assessed as induction of TBK1 degradation incubated for 16 hrs by Western blot analysis; assay type: cell-based
Mus musculus [21] = assay: Anti-inflammatory activity in PKD1 knockout ADPKD (Pkd1 flox/flox; Ksp-Cre) C57BL/6 mouse model assessed as decrease in Ccl2 level in kidney at 5 mg/kg, SC administered from postnatal day 6 and measured on postnatal day 12 by RT-qPCR analysis; assay type: functional, organism-based; conditions: time 7.0 day
Mus musculus [22] = assay: In vivo molecular glue activity at RNF126/TBK1 in PKD1 knockout ADPKD (Pkd1 flox/flox; Ksp-Cre) C57BL/6 mouse model assessed as decrease in phosphorylated STING level in kidney at 5 mg/kg, SC administered from postnatal day 6 and measured on postnatal day 12 by Western blot analysis; assay type: functional, organism-based; conditions: time 7.0 day
[23] = target: T1, E3 ubiquitin-protein ligase RNF126/Serine/threonine-protein kinase TBK1; assay: Molecular glue activity at RNF126/TBK1 in HEK293T cells assessed as induction of TBK1 degradation at 1 uM measured after 6 hrs by Western blot analysis; assay type: cell-based
Mus musculus [24] = assay: Anti-inflammatory activity in PKD1 knockout ADPKD (Pkd1 flox/flox; Ksp-Cre) C57BL/6 mouse model assessed as decrease in TNF-alpha level in kidney at 5 mg/kg, SC administered from postnatal day 6 and measured on postnatal day 12 by RT-qPCR analysis; assay type: functional, organism-based; conditions: time 7.0 day
[25] = target: T1, E3 ubiquitin-protein ligase RNF126/Serine/threonine-protein kinase TBK1; assay: Molecular glue activity at RNF126/TBK1 in human A549 cells assessed as induction of TBK1 degradation at 1 uM measured after 24 hrs by Western blot analysis; assay type: cell-based
[26] = Half-life in rat at 2 mg/kg, iv measured after 24 hrs by LC-MS/MS analysis; assay type: ADME, organism-based; conditions: in vivo
Mus musculus [27] = assay: Inhibition of renal cystogenesis in PKD1 knockout ADPKD (Pkd1 flox/flox; Ksp-Cre) C57BL/6 mouse model assessed as reduction in renal cystic index at 5 mg/kg, SC administered from postnatal day 6 and measured on postnatal day 12 (reference value: 20.0 +/- 1.3 %); assay type: functional; set-up: scale not given: the % may be the effect or the level left; conditions: time 7 day
[28] = Oral bioavailability in rat at 10 mg/kg measured after 24 hrs by LC-MS/MS analysis; assay type: ADME, organism-based; conditions: in vivo
[29] = target: T1, E3 ubiquitin-protein ligase RNF126/Serine/threonine-protein kinase TBK1; assay: Molecular glue activity at RNF126/TBK1 in HEK293T cells assessed as induction of TBK1 degradation at 1 uM by Western blot analysis; assay type: cell-based; conditions: time 2-24 hrs

In the case of COc1ccc(C(=O)/C=C/C(=O)N2CCN(CC3CCN(Cc4cccc(Nc5ncc6ccn(CCCNC(=O)C7CCC7)c6n5)c4)CC3)CC2)cc1, the Activity [1] is reported as “inactive”, the Activity (Mus musculus [2]) is reported as “Active” and the inhibition (MDCK) is reported as “Time-dependent-effect; Effect Observed Starting On Day 6”. For the same molecule, the Cmax [3] was 1790 nM, the Activity [4] was “Active; Degradation In Independent Of Crl-Related Pathway” and the Cmax [5] was 70 nM. For the same molecule, the Activity (Mus musculus [6]) was “Active”, the Tmax [7] was 21.6 min and the Tmax [8] was 4.8 min. The Activity [9] was “Active; Significant Reduction In Tbk1 Level Observed”, the Activity [10] was “Active” and the Activity [11] was “Time-dependent-effect”. The inhibition (Mus musculus [12]) was “Active”, the inhibition (Mus musculus [13]) was “Active” and the Emax [14] was 91.9%. The AUC(0-inf) [15] was 0.14 µM·h, the Activity (Mus musculus [16]) was “Active” and the Activity [17] was “Active; Degradation In Independent Of Crl-Related Pathway”. For the same molecule, the AUC(0-inf) [18] was 1.03 µM·h, the Activity [19] was “Active” and the Activity [20] was “Dose-dependent-effect”. The DC50 [20] was 360 nM, the Activity (Mus musculus [21]) was “Active” and the Activity (Mus musculus [22]) was “Active”. For the same molecule, the Activity [23] was “Active; Significant Reduction In Tbk1 Level Observed”, the Activity (Mus musculus [24]) was “Active” and the Activity [25] was “Active; Maximal Tbk1 Degradation Observed”. For the same molecule, the half-life [26] was 268 min, the Activity (Mus musculus [27]) was 14% and the bioavailability [28] was 2.77%. The Activity [29] was “Time-dependent-effect”.
